Laboratory results published in ChEMBL document CHEMBL2016505, “Footprint-based identification of viral entry inhibitors targeting HIVgp41” (Bioorg Med Chem Lett, 2012).

Columns and labels:
[1] = Binding affinity to gp41 in HIV1 by fluorescence analysis; design: species or system Human immunodeficiency virus 1
[2] = Inhibition of HIV1 3B gp41-mediated cell-cell fusion between viral envelope expressing virus-infected HL2/3 cells to human MAGI-CCR5 cells after 6 hrs by luciferase reporter gene assay; assay type: cell-based; conditions: Human immunodeficiency virus 1, MAGI-CCR5, 6 h
[3] = Cytotoxicity against human MAGI-CCR5 cells assessed as cell viability by MTS assay; assay type: cell-based

Row | Ki [1] [µM] | IC50 [2] [µM] | SMILES | CC50 [3] [µM]
1 | 7.1 | 34 | O=C(CN1C(=O)N/C(=C/c2ccccc2OCc2ccc(C(=O)O)cc2)C1=O)Nc1ccccc1 | > 50
2 | 4.45 | 160 | Cc1cccc(NC(=O)CN2C(=O)N/C(=C/c3cccn3-c3cccc(C(=O)O)c3)C2=O)c1 | > 100
3 | 0.2 | 4.64 | O=C(O)c1cccc(N/N=C2\C(=O)N(c3nc(-c4ccccc4)cs3)N=C2c2ccccc2)c1 | 53

Further lines, the compound ahead of its results:

Row | SMILES | Ki [1] [µM] | IC50 [2] [µM] | CC50 [3] [µM]
4 | Cc1ccc(OCCn2cc(/C=C/C(=O)O)c3ccccc32)cc1 | 13 | 43 | > 50
5 | Cc1ccc(-c2nc(SCC(=O)Nc3ccc(C)c(C)c3)n3[nH]c(=O)cc3n2)cc1 | 0.46 | 13.3 | > 50
6 | COc1ccc(C(=O)Oc2ccc(Br)cc2/C=N/N=C2\NC(=O)[C@H](CC(=O)O)S2)cc1 | 1.6 | 41.1 | 208
7 | CCc1nc2nc(CSc3nnc(NC(=O)COc4ccc(C)c(C)c4)s3)cc(O)n2n1 | 2.55 | 53.5 | > 50
